Results taken from ChEMBL document CHEMBL1142484, “Design and synthesis of sulfoximine based inhibitors for HIV-1 protease” (Bioorg Med Chem Lett, 2008).

Target: Protease (Human immunodeficiency virus 1, UniProt Q9YQ12)
Assay: Inhibition of HIV1 protease

Protease, sequence (Q9YQ12 whole entry): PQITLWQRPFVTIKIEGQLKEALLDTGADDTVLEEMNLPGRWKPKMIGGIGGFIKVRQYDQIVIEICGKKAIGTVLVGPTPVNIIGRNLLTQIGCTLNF

SMILES	IC50 [µM]
O=C(N[C@H]1c2ccccc2C[C@H]1O)[C@H](Cc1ccccc1)CC(O)C[C@@H](Cc1ccccc1)C(=O)N[C@H]1c2ccccc2C[C@H]1O	0.0006
CC(C)(C)NC(=O)[C@H]1CN(Cc2cccnc2)CCN1C[S+](=N)([O-])C[C@H](Cc1ccccc1)C(=O)N[C@@H]1c2ccccc2C[C@@H]1O (stereo partly drawn)	100
CC(C)(C)NC(=O)C1CN(Cc2cccnc2)CCN1C[S+]([O-])C[C@H](Cc1ccccc1)C(=O)NC1c2ccccc2CC1O (single isomer, unassigned)	100
